Source: patent US5639735A, “Antitumor antibiotic compounds: hayumicins and analogs thereof” (Bristol-Myers Squibb Company, priority 1994, dated 1997)
Values after ≈ are worked out from the molar mass of the structure shown.

Tests used:
[1] = Solubility
[2] = system: bacteria (especially gram positive bacteria); experiment: Antibiotic activity (general statement); format: cell-based; conditions: inhibiting the growth of bacteria
[3] = system: tumors; experiment: Antitumor activity (general statement); conditions: no test described
[4] = system: Streptococcus agalactiae; experiment: Agar dilution MIC; format: cell-based; conditions: A No. 22567, 37° C., 18 hours
Procedure: (§1) The following methodology was used to determine the minimum inhibitory concentration (hereinafter referred to as the "MIC") of the compounds of this invention. The test organisms were grown in 20 mL of Antibiotic Assay Broth (Difco) by inoculating the broth (in tubes) with a loopful of the organism from a BHI (Difco) agar slant. The inoculated tubes were incubated at 37° C. for 18 to 24 hours. These cultures were assumed to contain 10^9 colony forming units (CFU) per mL. The cultures were diluted 1:100 to give a final inoculum level of 10^7 CFU per mL; dilutions were made with Yeast Beef Broth (Difco). The antibiotics Hayumicin A and Hayumicin B of the present invention were dissolved in suitable diluents at a concentration of 1000 μg/mL. Two-fold dilutions were made in Yeast Beef Broth (Difco), resulting in a range from 1000 μg/mL to 0.5 μg/mL. A 1.5 mL portion of each dilution was placed into individual petri dishes to which 13.5 mL of K-10 agar was added. The composition of K-10 agar is:
(§2) The final drug concentration in agar of Hayumicin A or Hayumicin B ranged from […] to 0.05 μg/mL. Organism growth control plates containing agar only were prepared and inoculated before and after the test plates. The organisms were applied to the surface of each plate so that each contained a final inoculum of 10^5 CFU. The plates were incubated at 37° C. for 18 hours and the MICs determined. The MIC is the lowest concentration of compound inhibiting growth of the organism.

[5] = system: Proteus mirabilis; experiment: Agar dilution MIC; format: cell-based; conditions: A No. 9900, 37° C., 18 hours
Procedure: as §1, §2

[6] = system: Streptococcus pyogenes; experiment: Agar dilution MIC; format: cell-based; conditions: A No. 9604, 37° C., 18 hours
Procedure: as §1, §2

[7] = system: Bacillus subtilis; experiment: Agar dilution MIC; format: cell-based; conditions: A No. 9506A, 37° C., 18 hours
Procedure: as §1, §2

[8] = system: Escherichia coli; experiment: Agar dilution MIC; format: cell-based; conditions: 18 h
Procedure: as §1, §2

[9] = system: Streptococcus pneumoniae; experiment: Agar dilution MIC; format: cell-based; conditions: A No. 9585, 37° C., 18 hours
Procedure: as §1, §2

[10] = system: Staphylococcus aureus; experiment: Agar dilution MIC; format: cell-based; conditions: 18 h
Procedure: as §1, §2

[11] = system: Pseudomanas aeruginosa; experiment: Agar dilution MIC; format: cell-based; conditions: A No. 21508, 37° C., 18 hours
Procedure: as §1, §2

[12] = system: Micrococcus luteus; experiment: Agar dilution MIC; format: cell-based; conditions: A No. 9852, 37° C., 18 hours
Procedure: as §1, §2

[13] = system: Klebsiella pneumoniae; experiment: Agar dilution MIC; format: cell-based; conditions: A No. 9664, 37° C., 18 hours
Procedure: as §1, §2

[14] = system: Klebsiella oxytoca; experiment: Agar dilution MIC; format: cell-based; conditions: A No. 203454, 37° C., 18 hours
Procedure: as §1, §2

Row | SMILES | solubility in chloroform [1] | solubility in dimethylsulfoxide [1] | solubility in ether [1] | solubility in methanol [1] | solubility in n-hexane [1] | solubility in pyridine [1] | solubility in water [1] | antibiotic activity [2] | antitumor activity [3] | MIC [4] | MIC [5] | MIC [6] | MIC [7] | MIC ([8]; A No. 20697, 37° C.) | MIC ([8]; A No. 22292, 37° C.) | MIC ([8]; A No. 28290, 37° C.) | MIC [9] | MIC ([10]; A No. 9537, 37° C.) | MIC ([10]; A No. 9606, 37° C.) | MIC ([10]; A No. 24227, 37° C.) | further results
1 | CO[C@H]1[C@@H](O)[C@@H](C)O[C@H](O[C@H]2[C@H](Oc3cccc4c(=O)c5c(N)c(=O)c6ccc(C)c7c(=O)oc(c-5c67)c34)O[C@H](C)[C@H](O)[C@@H]2O)[C@@H]1O [Hayumicin C2, B-amino-10-[[6-deoxy-2-O -(6-deoxy-3-O-methyl-α-D-galactopyranosyl)-β-D -galactopyranosyl]oxy]-1-methyl-4H -benzo[h]naphtho[8,1,2-cde][1]benzopyran-4,6,12-trione] | slightly soluble | soluble | practically insoluble | slightly soluble | practically insoluble | soluble | practically insoluble | possess antibiotic activity | antitumor activity |  |  |  |  |  |  |  |  |  |  |  | 
2 | Cc1ccc2c(=O)c(N)c3c(=O)c4cccc(O[C@@H]5O[C@H](C)[C@H](O)[C@H](O)[C@H]5O[C@H]5O[C@H](C)[C@H](O)[C@H](O)[C@H]5O)c4c4oc(=O)c1c2c4-3 [Hayumicin D, 5-amino-10-[[6-deoxy-2-O -(6-deoxy-α-D-galactopyranosyl)-β-D -galactopyranosyl]oxy]-1-methyl-4H -benzo[h]naphtho[8,1,2-cde][1]benzopyran-4,6,12-trione] | slightly soluble | soluble | practically insoluble | slightly soluble | practically insoluble | soluble | practically insoluble | possess antibiotic activity | antitumor activity |  |  |  |  |  |  |  |  |  |  |  | 
3 | CO[C@@H]1[C@@H](O)[C@@H](O[C@H]2[C@H](Oc3cccc4c(=O)c5c(N)c(=O)c6ccc(C)c7c(=O)oc(c-5c67)c34)O[C@H](C)[C@H](O)[C@@H]2O)O[C@H](C)[C@@H]1OC [Hayumicin B, 5-amino-10-[[6-deoxy-2-O -(6-deoxy-3,4-di-O-methyl-α-D-galactopyranosyl)-β-D -galactopyranosyl]oxy]-1-methyl-4H -benzo[h]naphtho[8,1,2-cde][1]benzopyran-4,6,12-trione] | slightly soluble | readily soluble |  | slightly soluble | insoluble | readily soluble | insoluble | possess antibiotic activity | antitumor activity | 8 µg/mL (≈ 12 µM) | > 128 µg/mL | 8 µg/mL (≈ 12 µM) | 4 µg/mL (≈ 6.01 µM) | > 128 µg/mL | 128 µg/mL (≈ 192 µM) | > 128 µg/mL | 8 µg/mL (≈ 12 µM) | 64 µg/mL (≈ 96.1 µM) | 128 µg/mL (≈ 192 µM) | 128 µg/mL (≈ 192 µM) | MIC [11]: > 128 µg/mL; MIC [12]: 1 µg/mL (≈ 1.5 µM); MIC [13]: > 128 µg/mL; MIC [14]: > 128 µg/mL
4 | CO[C@@H]1[C@H](O)[C@@H](O)[C@@H](O[C@H]2[C@H](Oc3cccc4c(=O)c5c(N)c(=O)c6ccc(C)c7c(=O)oc(c-5c67)c34)O[C@H](C)[C@H](O)[C@@H]2O)O[C@@H]1C [Hayumicin C1, 5-amino-10-[[6-deoxy-2-O -(6-deoxy-4-O-methyl-α-D-galactopyranosyl)-β-D -galactopyranosyl]oxy]-1-methyl-4H -benzo[h]naphtho[8,1,2-cde][1]benzopyran-4,6,12-trione] | slightly soluble | soluble | practically insoluble | slightly soluble | practically insoluble | soluble | practically insoluble | possess antibiotic activity | antitumor activity |  |  |  |  |  |  |  |  |  |  |  | 
5 | CO[C@@H]1[C@@H](O)[C@@H](O[C@H]2[C@H](Oc3cccc4c(=O)c5c(O)c(=O)c6ccc(C)c7c(=O)oc(c-5c67)c34)O[C@H](C)[C@H](O)[C@@H]2O)O[C@H](C)[C@@H]1OC [Hayumicin A, 10-[[6-deoxy-2-O-(6-deoxy-3,4-di-O-methyl-α-D-galactopyranosyl)-β-D -galactopyranosyl]oxy]-5-hydroxy-1-methyl-4H -benzo[h]naphtho[8,1,2-cde][1]benzopyran-4,6,12-trione] | slightly soluble | readily soluble |  | slightly soluble | insoluble | readily soluble | insoluble | possess antibiotic activity | antitumor activity | 8 µg/mL (≈ 12 µM) | > 128 µg/mL | 8 µg/mL (≈ 12 µM) | 32 µg/mL (≈ 48 µM) | > 128 µg/mL | 16 µg/mL (≈ 24 µM) | > 128 µg/mL | 16 µg/mL (≈ 24 µM) | 64 µg/mL (≈ 96 µM) | 128 µg/mL (≈ 192 µM) | 128 µg/mL (≈ 192 µM) | MIC [11]: > 128 µg/mL; MIC [12]: 1 µg/mL (≈ 1.5 µM); MIC [13]: > 128 µg/mL; MIC [14]: > 128 µg/mL
